# According to patent publication US5447862A, “Pectin lyase genes of aspergillus niger” (Ciba-Geigy Corporation, priority 1987, dated 1995):
# Tested on: Aspergillus niger pectin lyase B (PLB), purified from pelB transformant B13, SEQ ID NO: 6
# Settings: EDTA 3 mM final concentration in the reaction mixture; enzyme reactivated by excess of Ca2+ ions
# Method: Both highly esterified pectin (d.e. 94%) as well as pectins with lower degree of esterification like Brown Ribbon apple pectin (d.e. 72.8%; Obipektin AG Bischoffzell) can be used as substrate.
# These values are determined according to the procedure of van Houdenhoven (ref. 18) using a Mc Ilvaine buffer of pH 8.0 (μ=0.5).
smiles,measurement,value
"O=C([O-])CN(CCN(CC(=O)O)CC(=O)O)CC(=O)[O-].[Na+].[Na+] [EDTA, ethylenediaminetetraacetic acid disodium salt]",inhibition of the pectin lyase reaction by EDTA,inhibited
